Where a SMILES comes first, the peptide text is derived from it.
Assays:
[1] = Saturated ibuprofen solutions: solubility (weight percent) with potassium hydroxide
[2] = Saturated aspartame solutions: solubility with potassium hydroxide; assay type: physicochemical; details: for ASPARTAME SOLUBILITY (%): saturated solution
Protocol: The following saturated aspartame solutions were prepared, using aspartame as a model of an amphoteric pharmaceutical agent. These solutions contain the indicated amount of aspartame, the indicated solvent and the indicated amount of potassium hydroxide. […] The solutions were suitable for filling into soft gelatin capsules.

[3] = Saturated aspartame solutions: solubility with hydrochloric acid; assay type: physicochemical; details: for ASPARTAME SOLUBILITY (%): saturated solution
Description: The following saturated aspartame solutions were made using aspartame for a model for an amphoteric pharmaceutical agent. […] These solutions are suitable for filling into soft gelatin capsules.

CC(C)Cc1ccc(C(C)C(=O)O)cc1 (stereo not shown) [ibuprofen]
IBUPROFEN SOLUBILITY (%) ([1]; solvent LABRASOL, mole equivalent hydroxide 0, saturated solution): 25.0% | IBUPROFEN SOLUBILITY (%) ([1]; solvent LABRASOL, mole equivalent hydroxide (KOH) 0.25, saturated solution): 40.0% | IBUPROFEN SOLUBILITY (%) ([1]; solvent LABRASOL, mole equivalent hydroxide (KOH) 0.5, saturated solution): 45.0% | IBUPROFEN SOLUBILITY (%) ([1]; solvent LABRASOL, mole equivalent hydroxide (KOH) 0.75, saturated solution): 42.5% | IBUPROFEN SOLUBILITY (%) ([1]; solvent LABRASOL, mole equivalent hydroxide (KOH) 1.0, saturated solution): 40.0% | IBUPROFEN SOLUBILITY (%) ([1]; solvent PLUROL OLEIQUE, mole equivalent hydroxide 0, saturated solution): 15.0% | IBUPROFEN SOLUBILITY (%) ([1]; solvent PLUROL OLEIQUE, mole equivalent hydroxide (KOH) 0.5, saturated solution): 30.0% | IBUPROFEN SOLUBILITY (%) ([1]; solvent PLURONIC L62, mole equivalent hydroxide 0, saturated solution): 10.0% | IBUPROFEN SOLUBILITY (%) ([1]; solvent PLURONIC L62, mole equivalent hydroxide (KOH) 0.25, saturated solution): 15.0% | IBUPROFEN SOLUBILITY (%) ([1]; solvent PLURONIC L62, mole equivalent hydroxide (KOH) 0.5, saturated solution): 20.0% | IBUPROFEN SOLUBILITY (%) ([1]; solvent PLURONIC L62, mole equivalent hydroxide (KOH) 0.75, saturated solution): 27.5% | IBUPROFEN SOLUBILITY (%) ([1]; solvent PLURONIC L62, mole equivalent hydroxide (KOH) 1.0, saturated solution): 30.0% | IBUPROFEN SOLUBILITY (%) ([1]; solvent TRANSCUTOL, mole equivalent hydroxide 0, saturated solution): 42.5% | IBUPROFEN SOLUBILITY (%) ([1]; solvent TRANSCUTOL, mole equivalent hydroxide (KOH) 0.25, saturated solution): 55.0% | IBUPROFEN SOLUBILITY (%) ([1]; solvent TRANSCUTOL, mole equivalent hydroxide (KOH) 0.5, saturated solution): 60.0% | IBUPROFEN SOLUBILITY (%) ([1]; solvent TRANSCUTOL, mole equivalent hydroxide (KOH) 0.75, saturated solution): 52.5% | IBUPROFEN SOLUBILITY (%) ([1]; solvent TRANSCUTOL, mole equivalent hydroxide (KOH) 1.0, saturated solution): 52.5%

COC(=O)[C@H](Cc1ccccc1)NC(=O)[C@@H](N)CC(=O)O [aspartame] (H-Asp-Phe-OMe)
enhanced solubility (in words) ([2]; potassium hydroxide, except for Pluronic L62): showed enhanced solubility in the presence of the hydroxide species | ASPARTAME SOLUBILITY (%) ([2]; solvent LABRASOL, mole equivalent hydroxide 0): 0.30% | ASPARTAME SOLUBILITY (%) ([2]; solvent LABRASOL, mole equivalent hydroxide (KOH) 0.50): 0.60% | ASPARTAME SOLUBILITY (%) ([2]; solvent PLURONIC L62, mole equivalent hydroxide 0): 0.045% | ASPARTAME SOLUBILITY (%) ([2]; solvent PLURONIC L62, mole equivalent hydroxide (KOH) 0.50): 0.045% | ASPARTAME SOLUBILITY (%) ([2]; solvent TRANSCUTOL, mole equivalent hydroxide 0): 0.43% | ASPARTAME SOLUBILITY (%) ([2]; solvent TRANSCUTOL, mole equivalent hydroxide (KOH) 0.50): 0.68% | enhanced solubility (in words) ([3]; hydrochloric acid, each solvent): enhanced solubility was noted | ASPARTAME SOLUBILITY (%) ([3]; solvent LABRASOL, mole equivalent acid 0): 0.30% | ASPARTAME SOLUBILITY (%) ([3]; solvent LABRASOL, mole equivalent acid (HCl) 50 (so in the source)): 0.50% | ASPARTAME SOLUBILITY (%) ([3]; solvent PLURONIC L62, mole equivalent acid 0): 0.045% | ASPARTAME SOLUBILITY (%) ([3]; solvent PLURONIC L62, mole equivalent acid (HCl) 50 (so in the source)): 0.095% | ASPARTAME SOLUBILITY (%) ([3]; solvent TRANSCUTOL, mole equivalent acid 0): 0.43% | ASPARTAME SOLUBILITY (%) ([3]; solvent TRANSCUTOL, mole equivalent acid (HCl) 50 (so in the source)): 0.91%
